Experimental data as given in patent publication US20230406849A1, “KRAS INHIBITORS FOR TREATMENT OF CANCERS” (TYLIGAND BIOSCIENCE (SHANGHAI) LIMITED, priority 2020, published 2023).
Read-outs that look alike come from different tables or passages of the source.

How the values were obtained:
[1] = Cassette pharmacokinetic experiment in rats (IV); type: in vivo; settings: rat, plasma, 1 mg/kg, male SD rats, tail vein IV, 1 mg/mL each compound at 1 mL/kg
Text: 2.1 Pharmacokinetic Properties of Some Compounds of the Present Disclosure Evaluated by Cassette Pharmacokinetic Experiments in Rats.
[Test materials]: Male SD rats, age: 6-8 weeks, body weight 220-250 g, purchased from Zhaoyan (Suzhou) New Drug Research Center Co., Ltd.; Tolbutamide (Aladdin, Cat #H1401054); Sulfobutyl-(Captisol, Shandong Binzhou Zhiyuan Biological Technology Co., Ltd, Cat #20191013); Propylene glycol (15)-stearate (Solutol, Meilun Bio, Cat #50206A); DMSO (Vetec Company, Cat #WXBD0293V); acetonitrile (Sigma-Aldrich, Cat #WXBD1744V); Methanol (Sigma-Aldrich, Cat #WXBD2831V).
[Experimental procedure]: The compound combination was prepared in a solvent of 5% DMSO/10% Solutol/85% (20% Captisol), and the final concentration of each compound was 1 mg/mL. The SD rats were treated with the compound preparation in 1 mL/kg by tail vein IV injection, and blood samples were collected at the time points of 5 min, 15 min, 30 min, 1 h, 2 h, 4 h, 8 h, and 24 h via external jugular vein puncture, centrifuged at low temperature for 20 minutes to collect plasma samples, which were stored at −80° C. until analysis.
[Sample analysis]: Establishing LC-MS/MS compound analysis method
Standard curve preparation: 20 μL of lmg/mL DMSO stock solution for each compound was aspirated and transferred to […] of 50% methanol working solution, and the resulting solution was serially diluted to obtain a standard curve working solution with concentrations of 20000, 10000, 5000, 1000, 500, 100, 50, 20 and […]. Then 5 µL of this standard curve working solution was mixed with 45 μL rat blank plasma to give a standard curve with concentrations of 2000, 1000, 500, 100, 50, 10, 2 and 1 ng/mL for quantification of unknown samples.
Sample pretreatment: 50 μL of unknown plasma sample or standard curve sample was mixed with 250 μL of acetonitrile containing internal standard as a precipitant. The plasma protein was precipitated, extracted for test compounds, and centrifuged at low temperature for 20 minutes. The supernatant was taken, mixed with 0.1% formic acid aqueous solution, and 5 μL of the resulting solution was aspirated for blood concentration analysis.
[Data processing]: A standard curve was plotted using mass spectrometry software, to quantify unknown samples, and pharmacokinetic parameters are calculated by Winnonlin 8.2 using the drug concentration of unknown samples at each time point.

[2] = test system: human non-small cell lung cancer cells NCI-H358 with KRas G12C mutation; experiment: NCI-H358 cell proliferation, CellTiter-Glo Luminescent Cell Viability Assay; type: cell-based; settings: for inhibition at 1 µM: 1 μM compound, read-out: Inhibition rate % (1 μM)
Text: This assay verified the inhibitory activity of the compounds of the present disclosure on the proliferation of human non-small cell lung cancer cells NCI-H358 with KRas G12C mutation by using Promega's CellTiter-Glo® Luminescent Cell Viability Assay kit.
[Test materials]: NCI-H358 cell line (Cell Resource Center, IBMS, CAMS/PUMC, Item number: 3111C0001CCC000470), 96-well transparent flat-bottomed black-walled cell culture plate (Greiner Bio one, Cat #655096), RPMI-1640 Medium (GE, Cat #SH30809.01), Fetal Bovine Serum FBS (Thermo Fisher, Cat #10099-141), CellTiter-Glo® Luminescent Cell Viability Assay Kit (Promega, Cat #G7573), PBS (Solarbio, Cat #P1020), Trypsin (Thermo Fisher, Cat #25200072), DMSO (Sigma, Cat #D2650), Methyl cellulose (SIGMA, Cat #9004-67-5).
[Experimental procedure]: 180 μL of cell suspension (RPMI1640 solution with 10% FBS and 1% methyl cellulose) was charged to a 96-well cell culture plate at a density of 1500 cells/well. A control group containing no cells, no compounds and only 3D complete medium (RPMI 1640 solution with 1! Methyl cellulose and 10% FBS) (i.e. culture medium control) and a control group containing no compounds but cells (i.e. cell control) were set. AMG510 or the following reference compounds were used as positive controls. The cell plate was placed in a cell incubator overnight. A 10-fold drug solution (RPMI1640 solution with 10% FBS and 1% DMSO) was prepared at a concentration of 10 μM, and 20 μL of this solution was added to each well of the 96-well plate seeded with cells, so that the final concentration of the compounds in each well was 1 μM, and the DMSO concentration […] replicate wells were set up for each compound. The solutions of AMG510 or the following reference compounds were prepared in the same way and added to the positive control wells. The cell plate was placed in a cell incubator and cultured for 120 h. For endpoint detection, the CellTiter-Glo reagent was melted, and the cell plate was moved to room temperature to equilibrate for 30 minutes, added with 100 µL of CellTiter-Glo to each well, and shaken on an orbital shaker for 5 minutes to fully lyse the cells. The plate was kept at room temperature for 20 minutes to stabilize the luminescence signal, and the luminescence value of each well was full wavelength scanned with a multi-functional microplate reader (Molecular Devices, Spectramax M3 microplate reader).
[Test samples] The compounds of Examples 1-39, and reference compound A
[Data Analysis] The following formula was used to calculate the cell inhibition rate under the action of each concentration of the compounds:
Inhibition rate %=[1−(LumDrug to be tested−LumCulture medium control)/(LumCell control−LUMCulture medium control)]×100%
IC50 values were calculated using GraphPad Prism 7.0 software, nonlinear Sigmoidal regression was used to fit the data to obtain a dose-response curve.

SMILES	AUC(0-t) [1]	clearance [1]	half-life [1]	inhibition at 1 µM ([2]; 120 h)	IC50 ([2]; 120 h, read-out: IC50)	IC50 ([2]; read-out: IC50 value)
C=CC(=O)N1CCN(c2nc(=O)n(-c3c(C)ccnc3C(C)C)c3nc(-c4c(O)cccc4F)c(F)cc23)[C@@H](C)C1 (atropisomer, axis not shown) [AMG510, reference compound]	231 ng·h/mL	71.8 mL/min/kg	29.4 min			
C=CC(=O)N1CCN(c2ncnc3c(F)c(-c4ccc(F)c5sc(N)nc45)c(Cl)cc23)CC1 [Ref. Comp. A, reference compound]	623 ng·h/mL	27.1 mL/min/kg	60 min	96.9%	11 nM	
C=CC(=O)N1CCN(c2c(C#N)cnc3c(F)c(-c4ccc(F)c5sc(N)nc45)c(Cl)cc23)CC1 [Example 9, 4-(4-Acryloylpiperazin-1-yl)-7-(2-amino-7-fluorobenzo[d]thiazol-4-yl)-6-chloro-8-fluoroquinoline-3-carbonitrile]	1050 ng·h/mL	15.8 mL/min/kg	40.2 min	98.8%	8.6 nM	< 20 nM
C=CC(=O)N1CCN(c2c(C#N)cnc3c(F)c(-c4ccc(F)c5sc(N)nc45)c(Cl)cc23)C[C@H]1C [Example 8, 4-((R)-4-acryloyl-3-methylpiperazin-1-yl)-7-(2-amino-7-fluorobenzo[d]thiazol-4-yl)-6-chloro-8-fluoroquinoline-3-carbonitrile]				94%	18 nM	< 20 nM
